These results are taken from patent US11365208B2, “Silylated derivatives of resveratrol and the use thereof in neurodegenerative, neurological or inflammatory diseases” (Consejo Superior De Investigaciones Cientificas, priority 2016, dated 2022).

For one experiment, the system named is IL-6. Briefly: IL-6 in supernatant of LPS-stimulated RAW macrophages (ELISA). In kind it is cell-based. As to conditions: 10 μM, 24 h. The procedure:
(§1) To determine the production of cytokines, 5×10^5 RAW 264.7 macrophages were seeded in 24-well plates (0.5 ml per well). The compounds to be tested were then added (10 μM), and the macrophages were either stimulated or not through the addition of LPS (1 μg/ml) to the culture medium. After 24 hours, the levels of IL-6 and TNF-α were measured in the supernatants by ELISA using the capture and biotinylated antibodies from BD PharMingen and PrepoTech following known protocols. The levels of NO in the supernatants at 24 hours were measured indirectly by determining the nitrite concentration in the medium using the Griess reagent according to established protocol. A minimum of two independent experiments and three replicates per experiment were performed for each measured value. The values are expressed as the mean±standard deviation.
(§2) In the previous assay, the levels of various inflammation parameters were measured (TNF-α, NO, and IL-6) by ELISA after treatment with RES or with some of the compounds of the invention (2, 3, 5, 6, 8, and 9).
For orientation: ELISA stands for enzyme-linked immunosorbent assay.

Another experiment deals with zebrafish (Danio rerio). Briefly: PTZ-induced neurotoxicity model in zebrafish larvae, AChE activity. The format is in vivo. As to conditions: 5 dpf larvae, 10 μM, 1 h pre-treatment then 6 h with 5 mM PTZ. The procedure:
The objective of this assay was to analyze the protective effect of various derivatives of resveratrol in a model of neurotoxicity induced by the neurotoxin pentylenetetrazole (PTZ). As an experimental model, the zebrafish (Danio rerio) was used to study the effect of the compounds on acetylcholinesterase activity (AChE) in larvae at 5 days post-fertilization (dpf).
Zebrafish embryos were seeded in 50 ml of dilution water (AD) in a Petri dish and grown to 5 dpf (larval stage). […] Next, the larvae were transferred using a Pasteur pipette to a 24-well microplate, so that each well contained five larvae, making ten replicates per condition. First, the pre-treatment of the 5 dpf larvae was performed. For this, the larvae were incubated at 26±1° C. for 1 hour in a volume of 2 ml of AD for the two control groups (Control and Control+PTZ), of physostigmine (Phys) 20 μM, which is a commercial inhibitor of the enzyme AChE for the Phys group, and of the test compounds at a concentration of 10 μM. A medium exchange was then carried out, and the larvae were incubated with the compounds in combination with 5 mM PTZ for 6 hours at 26±1° C. After this incubation period, all of the larvae were examined, and it was determined that the general state of the larvae was totally normal, without any visible anomaly or anomalous behavior. Finally, the larvae were processed for the analysis of the AChE activity.
In order to determine the AChE levels, larvae processing was carried out according to the established technical study protocol once the experimental period was completed. The larvae were homogenized mechanically, and the samples were centrifuged to obtain the supernatant, which were used to determine the levels of the AChE enzyme as a function of the treatments administered. In addition, the determination of total protein of each experimental group was carried out according to the established technical study protocol. Finally, the AChE levels determined in the control group were taken as a reference measurement and deemed to be 100%.

A further experiment deals with NO. Put plainly: NO (nitrite, Griess reagent) in supernatant of LPS-stimulated RAW macrophages. The format is cell-based. The note with it: 10 μM, 24 h. The procedure:
as §1, §2

For experiment [1], the system named is mouse model of Huntington's disease. Briefly: 3-nitro-propionic acid (3NP) mouse model of Huntington's disease. In kind it is in vivo. As to conditions: 3NP mice. The procedure:
Compound 15 was investigated as a possible treatment in a mouse model of Huntington's disease. The compound resveratrol (RES) was added as a reference.
In this model, increasing amounts of 3-nitro-propionic acid (3NP) are injected into the mice, causing lesions with a phenotype very similar to that of Huntington's disease, both mechanically and pathologically. Once the damage was caused, the mice were treated with RES, compound 15, or vehicle, and we studied the effect thereof on the mouse on the basis of different parameters. Behavioral studies (rotarod test), an assessment was made of motor capacity (tabulated on a scale of 0 normal to 4 incapable, in several parameters such as general mouse dystonia, ability to flip over, and the ability to explore), weight was monitored, and subsequent measurements were taken such as of the inhibition of pro-inflammatory cytokines in plasma or brain.
The design of the experiment is shown in FIG. 16. #=Behavioral study and rotarod test; ϕ Administration of the compound; W=weeks of age of the mice; D=Day of the experiment.

In a further experiment the test system is RAW 264.7 macrophages. Briefly: Inflammation assay: RAW macrophage viability after LPS (MTT). The note with it: 10 μM, LPS 100 ng/ml, 24 h, 1% DMSO. The format is cell-based. The procedure:
RAW 264.7 macrophages were cultured in P75 with high-glucose DMEM supplemented with penicillin/streptomycin and 10% inactivated fetal bovine serum.
The cell viability assays with RAW macrophages were prepared in 96-well plates by seeding 25,000 cells/well in a volume of 100 μL and incubating the cells for 4 h before the addition of the compounds. The compounds to be tested were dissolved in DMSO and added in three different concentrations (1, 10, and 100 μM) in order to determine their toxicity. The final percentage of DMSO in each well was adjusted to 1%. The cell viability was evaluated 24 h after the addition of the compounds by means of the MTT assay according to the manufacturer's method. Mean values and standard deviations were calculated from at least eight different measurements from several independent experiments.
For the testing of mitigation of damage caused by the addition of LPS, the RAW 264.7 macrophages were cultured according to the procedure described above. […] The cell viability was evaluated 24 h after the addition of the compounds by means of the MTT assay according to the manufacturer's method. Mean values and standard deviations were calculated from at least eight different measurements from several independent experiments.

Experiment [2] relates to SH-SY5Y neuroblastoma cell line. Briefly: Neuroprotection assay: SH-SY5Y viability after H2O2 damage (MTT). In kind it is cell-based. The note with it: 10 μM, H2O2 100 μM, 24 h, 1% DMSO. The procedure: The SH-SY5Y neuroblastoma cell line was cultured in petri dishes pre-treated with collagen (100 ng/ml) with F12 medium supplemented with penicillin/streptomycin and 10% inactivated fetal bovine serum.
Cell viability assays with neurons were prepared in 96-well plates pre-treated with collagen by seeding 20,000 cells/well in a volume of 100 μL and incubating the cells for 24 h before the addition of the compounds. The compounds to be tested were dissolved in DMSO and added in three different concentrations (1, 10, and 100 μM) in order to determine their toxicity. The final percentage of DMSO in each well was adjusted to 1%. The cell viability was evaluated 24 h after the addition of the compounds by means of the MTT assay according to the manufacturer's method. Mean values and standard deviations were calculated from at least eight different measurements from several independent experiments.
For the neuroprotection assay, the neurons were cultured and seeded in the same manner as for the cell viability assay. […] The cell viability was evaluated 24 h after the addition of the compounds by means of the MTT assay according to the manufacturer's method. Mean values and standard deviations were calculated from at least eight different measurements from several independent experiments. […]

Experiment [3] deals with mouse model of multiple sclerosis. Put plainly: Experimental allergic encephalomyelitis (EAE) mouse model of multiple sclerosis. In kind it is in vivo. The note with it: for motor capacity: preventive regimen, 20 mg/kg intraperitoneal twice a week for 3 weeks from day 5 after induction; for clinical classification of the motor capacity: 20 mg/kg intraperitoneal twice a week for 2 weeks from day 12 after induction, especially days 20-30. The procedure:
Compound 15 was investigated as a possible treatment in a mouse model of multiple sclerosis. The compound resveratrol (RES) was added as a reference. An experimental allergic encephalomyelitis model, EAE, was used as an animal model of multiple sclerosis.
In this model, mice are injected with myelin oligodendrocyte glycoprotein (MOG, MOG35-55, is the 21 amino acid peptide corresponding to the sequence from positions 35 to 55 of the MOG glycoprotein) and virus pertussis (pertussis toxin, PTX) in order to induce the disease. Two days after induction, a new dose of the virus was given again, because some mice were not developing symptoms of EAE. Once the damage was caused, the mice were treated with RES, compound 15, or vehicle, and we studied the effect thereof on the mouse on the basis of different motor parameters on a scale from 0 normal to 4 incapable.
• Vehicle without tween-80 emulsifier (control EAE without T) • Vehicle with tween-80 emulsifier (EAE-T control) • Preventive RES (without tween-80 emulsifier) (RES-PREV) • Therapeutic RES (no tween-80 emulsifier) (RES-TERAP) • Preventive compound 15 (with tween-80 emulsifier) (compound 15-PREV) • Therapeutic compound 15 (with tween-80 emulsifier) (compound 15-TERAP)
The (intraperitoneal) administration of the compounds (resveratrol, compound 15, and vehicle, with or without tween-80) is started 5 days after induction. 250 μL of the compound in question (20 mg/kg) were injected twice a week and the treatment was maintained for 3 weeks. The treatment was then stopped, but the state of the mice was monitored for another 3 weeks (47 days total).
The (intraperitoneal) administration of the compounds (resveratrol, compound 15, and vehicle, with or without tween-80) is started 12 days after induction. 250 μL of the compound in question (20 mg/kg) were injected twice a week and the treatment was maintained for 2 weeks. The treatment was then stopped, but the state of the mice was monitored for another 3 weeks (47 days total).

The subject of another experiment is TNF-α. Briefly: TNF-α in supernatant of LPS-stimulated RAW macrophages (ELISA). The format is cell-based. The note with it: 10 μM, 24 h. The procedure: as §1, §2

Structures are written as SMILES.

As to `Oc1ccc(C=Cc2cc(O)cc(O)c2)cc1` [RES, resveratrol], in the experiment on IL-6, the “IL-6 level in culture medium” value was “significantly decreases”. Further, the “AChE activity relative to control (neuroprotective effect)” value (from here on “AChE activity relative to control”) in the experiment with zebrafish (Danio rerio) is “lower neuroprotective effect”. The “NO level in culture medium” value with NO is on record as “significantly decreases”. The “improvement of the phenotype caused by 3NP, compared with compound 15” value in experiment [1] was “differences between compound 15 and RES are not great”. Further, the cell viability recovered result in the experiment with RAW 264.7 macrophages was “up to 62%”; in experiment [2] it was “up to 50%”. In addition, the motor capacity result in experiment [3] is “does reduce damage on a motor level”. In addition, the “clinical classification of the motor capacity” value in experiment [3] (therapeutic regimen) is reported as “do not appear to improve”. Also, the “TNF-α level in culture medium” value in the experiment with TNF-α is “significantly decreases”.

As for `CC[Si](CC)(CC)Oc1cc(/C=C/c2ccc(O)cc2)cc(O[Si](CC)(CC)CC)c1` [compound 9], the “AChE activity relative to control” value in the experiment on zebrafish (Danio rerio) is reported as “significantly prevent the decrease in AChE activity induced by PTZ”.

Regarding `CCCCCCCC(=O)OCC1OC(Oc2ccc(/C=C/c3cc(O[Si](C(C)C)(C(C)C)C(C)C)cc(O[Si](C(C)C)(C(C)C)C(C)C)c3)cc2)C(O)C(O)C1O` (stereo not drawn) [compound 15, 3,5-O-ditriisopropylsilyl-4′-(6-octanoyl)glucosyl resveratrol], the “AChE activity relative to control” value with zebrafish (Danio rerio) was “significantly prevent the decrease in AChE activity induced by PTZ”. In experiment [1], the “severity of the motor lesions (motor capacity)” value was “decreasing the severity of the motor lesions” and the “weight of the animals” value is on record as “increasing the weight of the animals”. Further, in experiment [1] (plasma), the “levels of pro-inflammatory cytokines such as IL-6” value is “decreasing”. In addition, in experiment [3] (20 mg/kg each, dose of RES in μmol/kg about 3× dose of compound 15), the “effectiveness relative to RES on a molar dose basis” value was “much more effective”. Besides, the motor capacity entry in experiment [3] is recorded as “does not have a great effect on motor capacity”. In experiment [3] (therapeutic regimen), the “clinical classification of the motor capacity” value is reported as “improves the clinical classification of the motor capacity of the mice compared to the control”. Besides, the “clinical classification of the motor capacity after end of administration” value in experiment [3] (therapeutic regimen, days 30-47, administration interrupted) is “improvement in the clinical classification was maintained”.

For `CCCCCCCC(=O)OCC1OC(Oc2cc(/C=C/c3ccc(O[Si](C(C)C)(C(C)C)C(C)C)cc3)cc(O[Si](C(C)C)(C(C)C)C(C)C)c2)C(O)C(O)C1O` (stereo not drawn) [compound 14, 3,4′-O-ditriisopropylsilyl-5-(-6-octanoyl)glucosyl resveratrol], the “AChE activity relative to control” value in the experiment with zebrafish (Danio rerio) was “lower neuroprotective effect similar to that observed for resveratrol”.

For the compound `CCCC(=O)Oc1ccc(/C=C/c2cc(O[Si](CC)(CC)CC)cc(O[Si](CC)(CC)CC)c2)cc1` [compound 17, 3,5-O-triethylsilyl-4′-butanoyl resveratrol], the “AChE activity relative to control” value in the experiment with zebrafish (Danio rerio) is “lower neuroprotective effect similar to that observed for resveratrol”.

As to `CC[Si](CC)(CC)Oc1ccc(/C=C/c2cc(O)cc(O[Si](CC)(CC)CC)c2)cc1` [compound 8], in the experiment with zebrafish (Danio rerio), the “AChE activity relative to control” value is given as “lower neuroprotective effect similar to that observed for resveratrol”.
